Measured values as given in patent publication US10758534B2 (Vertex Pharmaceuticals Incorporated, priority 2014, dated 2020).

Molecular target: T1, F508del (Homo sapiens, UniProt P13569, DEL508-508)
T1 construct: expressed in transfected cells
Assay: Protocol 1: membrane potential optical assay (FLIPR III, voltage sensing dye), identification of potentiator compounds
Type: cell-based
Conditions: Table 3, compounds of Table 1
Summary of the method: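 Gating potentiation is read as a membrane-potential fluorescence change (FLIPR III, voltage-sensing dye) after one forskolin addition under a Cl− gradient, with gluconate replacing chloride, pH 7.4. Cells are F508del-expressing NIH3T3 mouse fibroblasts held 24 h at 27 °C and exposed to compound before dye loading.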

T1 sequence (P13569 with tags, fused parts or gaps DEL508-508): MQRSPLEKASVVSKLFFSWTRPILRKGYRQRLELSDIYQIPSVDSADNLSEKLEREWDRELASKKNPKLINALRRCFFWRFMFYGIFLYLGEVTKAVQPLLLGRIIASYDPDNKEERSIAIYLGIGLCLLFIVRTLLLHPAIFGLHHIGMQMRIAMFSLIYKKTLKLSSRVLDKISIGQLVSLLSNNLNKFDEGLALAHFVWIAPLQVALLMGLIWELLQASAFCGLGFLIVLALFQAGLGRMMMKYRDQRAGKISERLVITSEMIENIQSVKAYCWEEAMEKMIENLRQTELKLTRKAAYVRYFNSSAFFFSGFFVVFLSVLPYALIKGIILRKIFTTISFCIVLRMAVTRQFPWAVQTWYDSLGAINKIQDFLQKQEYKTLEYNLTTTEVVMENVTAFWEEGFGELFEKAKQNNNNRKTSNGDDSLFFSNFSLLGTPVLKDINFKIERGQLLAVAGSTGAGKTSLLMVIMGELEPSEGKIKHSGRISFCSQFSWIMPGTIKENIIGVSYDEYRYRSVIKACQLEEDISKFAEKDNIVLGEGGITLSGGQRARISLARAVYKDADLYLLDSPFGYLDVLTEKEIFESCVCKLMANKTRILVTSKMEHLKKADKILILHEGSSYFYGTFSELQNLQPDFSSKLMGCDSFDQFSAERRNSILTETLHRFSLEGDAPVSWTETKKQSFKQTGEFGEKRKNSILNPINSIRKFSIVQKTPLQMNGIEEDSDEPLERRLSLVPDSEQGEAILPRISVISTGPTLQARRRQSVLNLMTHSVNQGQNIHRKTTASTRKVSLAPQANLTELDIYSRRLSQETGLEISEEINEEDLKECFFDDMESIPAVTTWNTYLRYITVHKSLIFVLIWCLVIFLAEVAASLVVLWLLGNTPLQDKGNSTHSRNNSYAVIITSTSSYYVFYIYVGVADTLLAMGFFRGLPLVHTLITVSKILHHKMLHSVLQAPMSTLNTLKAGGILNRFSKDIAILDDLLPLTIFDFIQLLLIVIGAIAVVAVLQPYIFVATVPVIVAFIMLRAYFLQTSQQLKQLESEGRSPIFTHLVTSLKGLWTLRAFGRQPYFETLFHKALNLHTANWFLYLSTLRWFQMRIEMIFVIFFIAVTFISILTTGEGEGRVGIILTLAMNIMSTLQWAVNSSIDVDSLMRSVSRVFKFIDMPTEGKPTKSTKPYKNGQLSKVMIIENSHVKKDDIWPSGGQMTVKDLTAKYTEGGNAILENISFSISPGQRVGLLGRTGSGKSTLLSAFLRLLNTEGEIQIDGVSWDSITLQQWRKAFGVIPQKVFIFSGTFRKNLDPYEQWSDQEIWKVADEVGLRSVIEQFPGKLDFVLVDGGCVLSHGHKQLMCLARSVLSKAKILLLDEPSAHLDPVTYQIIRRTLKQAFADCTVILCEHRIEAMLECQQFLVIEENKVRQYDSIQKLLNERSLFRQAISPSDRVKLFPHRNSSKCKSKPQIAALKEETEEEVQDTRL

SMILES | EC30
CC1CN(c2ncccc2C(=O)NS(=O)(=O)c2cccc(N3CCN(c4ccccn4)CC3)n2)C(C)(C)C1 (centres unmarked) [Compound 1816, N—[[6-[4-(2-pyridyl)piperazin-1-yl]-2-pyridyl]sulfonyl]-2-(2,2,4-trimethylpyrrolidin-1-yl)pyridine-3-carboxamide] | +++ (“+++” means <3 uM)
COc1ccc(-c2ccc(C(=O)NS(=O)(=O)c3cccnc3N)c(N3C[C@@H](C)CC3(C)C)n2)c(F)c1 [Compound 1818, N-[(2-amino-3-pyridyl)sulfonyl]-6-(2-fluoro-4-methoxy-phenyl)-2-[(4S)-2,2,4-trimethylpyrrolidin-1-yl]pyridine-3-carboxamide] | +++ (“+++” means <3 uM)
Cc1cc(F)cc(-c2ccc(C(=O)NS(=O)(=O)N3CC[C@H](N)C3)c(N3C[C@@H](C)CC3(C)C)n2)c1 [Compound 1819, N-[(3S)-3-aminopyrrolidin-1-yl]sulfonyl-6-(3-fluoro-5-methyl-phenyl)-2-[(4S)-2,2,4-trimethylpyrrolidin-1-yl]pyridine-3-carboxamide] | ++ (“++” means between 3 uM and 10 uM)
C[C@@H]1CN(c2nc(-c3cccc(O)c3)ccc2C(=O)NS(=O)(=O)c2cccnc2N)C(C)(C)C1 [Compound 1820, N-[(2-amino-3-pyridyl)sulfonyl]-6-(3-hydroxyphenyl)-2-[(4S)-2,2,4-trimethylpyrrolidin-1-yl]pyridine-3-carboxamide] | ++ (“++” means between 3 uM and 10 uM)
CC(C)COc1cc(F)cc(-c2ccc(C(=O)NS(=O)(=O)c3cccc(N)n3)c(N3CC4C5CCC(C5)C43)n2)c1 (centres unmarked) [Compound 1821, N-[(6-amino-2-pyridyl)sulfonyl]-6-(3-fluoro-5-isobutoxy-phenyl)-2-BLAHyl-pyridine-3-carboxamide] | +++ (“+++” means <3 uM)
CCOc1cccc(-c2ccc(C(=O)NS(=O)(=O)c3cccnc3N)c(N3C[C@@H](C)CC3(C)C)n2)c1 [Compound 1822, N-[(2-amino-3-pyridyl)sulfonyl]-6-(3-ethoxyphenyl)-2-[(4S)-2,2,4-trimethylpyrrolidin-1-yl]pyridine-3-carboxamide] | +++ (“+++” means <3 uM)
C[C@@H]1CN(c2nc(-c3cccc(C#N)c3)ccc2C(=O)NS(=O)(=O)c2cccnc2N)C(C)(C)C1 [Compound 1824, N-[(2-amino-3-pyridyl)sulfonyl]-6-(3-cyanophenyl)-2-[(4S)-2,2,4-trimethylpyrrolidin-1-yl]pyridine-3-carboxamide] | +++ (“+++” means <3 uM)
COc1cc(OC)cc(-c2ccc(C(=O)NS(=O)(=O)c3cccnc3N)c(N3C[C@@H](C)CC3(C)C)n2)c1 [Compound 1825, N-[(2-amino-3-pyridyl)sulfonyl]-6-(3,5-dimethoxyphenyl)-2-[(4S)-2,2,4-trimethylpyrrolidin-1-yl]pyridine-3-carboxamide] | +++ (“+++” means <3 uM)
CC1CN(c2ncccc2C(=O)NS(=O)(=O)c2cccc(Nc3cccc4cccnc34)n2)C(C)(C)C1 (centres unmarked) [Compound 1826, N—[[6-(8-quinolylamino)-2-pyridyl]sulfonyl]-2-(2,2,4-trimethylpyrrolidin-1-yl)pyridine-3-carboxamide] | +++ (“+++” means <3 uM)
CC(C)COc1cc(F)cc(-c2ccc(C(=O)NS(=O)(=O)c3ccccn3)c(N3C[C@@H](C)CC3(C)C)n2)c1 [Compound 1832, 6-(3-fluoro-5-isobutoxy-phenyl)-N-(2-pyridylsulfonyl)-2-[(4S)-2,2,4-trimethylpyrrolidin-1-yl]pyridine-3-carboxamide] | +++ (“+++” means <3 uM)
CC1CN(c2ncccc2C(=O)NS(=O)(=O)c2cccc(N3CCc4c([nH]c5ccccc45)C3)n2)C(C)(C)C1 (centres unmarked) [Compound 1833, N—[[6-(1,3,4,9-tetrahydropyrido[3,4-b]indol-2-yl)-2-pyridyl]sulfonyl]-2-(2,2,4-trimethylpyrrolidin-1-yl)pyridine-3-carboxamide] | +++ (“+++” means <3 uM)
CC1CN(c2ncccc2C(=O)NS(=O)(=O)c2cccc(OC3CCCC3)n2)C(C)(C)C1 (centres unmarked) [Compound 1834, N—[[6-(cyclopentoxy)-2-pyridyl]sulfonyl]-2-(2,2,4-trimethylpyrrolidin-1-yl)pyridine-3-carboxamide] | +++ (“+++” means <3 uM)
CC(C)COc1cc(F)cc(-c2ccc(C(=O)NS(=O)(=O)c3cccc(N)n3)c(N3CC(C(F)(F)F)CCC3C)n2)c1 (centres unmarked) [Compound 1835, N-[(6-amino-2-pyridyl)sulfonyl]-6-(3-fluoro-5-isobutoxy-phenyl)-2-[2-methyl-5-(trifluoromethyl)-1-piperidyl]pyridine-3-carboxamide] | +++ (“+++” means <3 uM)
CC(C)COc1cc(F)cc(-c2ccc(C(=O)NS(=O)(=O)c3ccccc3O)c(N3C[C@@H](C)CC3(C)C)n2)c1 [Compound 1836, 6-(3-fluoro-5-isobutoxy-phenyl)-N-(2-hydroxyphenyl)sulfonyl-2-[(4S)-2,2,4-trimethylpyrrolidin-1-yl]pyridine-3-carboxamide] | +++ (“+++” means <3 uM)
CC(C)COc1cc(F)cc(-c2ccc(C(=O)NS(=O)(=O)c3cccc(N)n3)c(N3CCC3C)n2)c1 (centres unmarked) [Compound 1840, N-[(6-amino-2-pyridyl)sulfonyl]-6-(3-fluoro-5-isobutoxy-phenyl)-2-(2-methylazetidin-1-yl)pyridine-3-carboxamide] | +++ (“+++” means <3 uM)

The next lines start with the values.

EC30 | SMILES
+++ (“+++” means <3 uM) | CC1CN(c2ncccc2C(=O)NS(=O)(=O)c2cccc(NCc3ccc4c(c3)OCO4)n2)C(C)(C)C1 (centres unmarked) [Compound 1814, N—[[6-(1,3-benzodioxol-5-ylmethylamino)-2-pyridyl]sulfonyl]-2-(2,2,4-trimethylpyrrolidin-1-yl)pyridine-3-carboxamide]
+++ (“+++” means <3 uM) | CC1CN(c2ncc(-c3cc(OC(C)C)cc(C(F)(F)F)c3)cc2C(=O)NS(=O)(=O)c2cccc(N)n2)C(C)(C)C1 (centres unmarked) [Compound 1815, N-[(6-amino-2-pyridyl)sulfonyl]-5-[3-isopropoxy-5-(trifluoromethyl)phenyl]-2-(2,2,4-trimethylpyrrolidin-1-yl)pyridine-3-carboxamide]
+++ (“+++” means <3 uM) | CC1CN(c2ncccc2C(=O)NS(=O)(=O)c2cccc(Nc3ccc4[nH]ccc4c3)n2)C(C)(C)C1 (centres unmarked) [Compound 1823, N—[[6-(1H-indol-5-ylamino)-2-pyridyl]sulfonyl]-2-(2,2,4-trimethylpyrrolidin-1-yl)pyridine-3-carboxamide]
+++ (“+++” means <3 uM) | CC1CN(c2ncccc2C(=O)NS(=O)(=O)c2cccc(N(C)Cc3ccccc3)n2)C(C)(C)C1 (centres unmarked) [Compound 1827, N—[[6-[benzyl(methyl)amino]-2-pyridyl]sulfonyl]-2-(2,2,4-trimethylpyrrolidin-1-yl)pyridine-3-carboxamide]
+++ (“+++” means <3 uM) | CCOc1cccc(Oc2cccc(S(=O)(=O)NC(=O)c3cccnc3N3CC(C)CC3(C)C)n2)c1 (centres unmarked) [Compound 1828, N—[[6-(3-ethoxyphenoxy)-2-pyridyl]sulfonyl]-2-(2,2,4-trimethylpyrrolidin-1-yl)pyridine-3-carboxamide]
+++ (“+++” means <3 uM) | Cc1cccc(-c2ccc(C(=O)NS(=O)(=O)c3cccnc3N)c(N3C[C@@H](C)CC3(C)C)n2)c1 [Compound 1829, N-[(2-amino-3-pyridyl)sulfonyl]-6-(m-tolyl)-2-[(4S)-2,2,4-trimethylpyrrolidin-1-yl]pyridine-3-carboxamide]
+++ (“+++” means <3 uM) | COc1ccc(F)cc1-c1ccc(C(=O)NS(=O)(=O)c2ccc[nH]c2=O)c(N2C[C@@H](C)CC2(C)C)n1 [Compound 1830, 6-(5-fluoro-2-methoxy-phenyl)-N-[(2-oxo-1H-pyridin-3-yl)sulfonyl]-2-[(4S)-2,2,4-trimethylpyrrolidin-1-yl]pyridine-3-carboxamide]
+++ (“+++” means <3 uM) | CC1CN(c2ncccc2C(=O)NS(=O)(=O)c2cccc(Oc3ccc(F)c(Cl)c3)n2)C(C)(C)C1 (centres unmarked) [Compound 1831, N—[[6-(3-chloro-4-fluoro-phenoxy)-2-pyridyl]sulfonyl]-2-(2,2,4-trimethylpyrrolidin-1-yl)pyridine-3-carboxamide]
+++ (“+++” means <3 uM) | C[C@@H]1CN(c2nc(-c3cc(F)cc(F)c3F)ccc2C(=O)NS(=O)(=O)c2ccc[nH]c2=O)C(C)(C)C1 [Compound 1837, N-[(2-oxo-1H-pyridin-3-yl)sulfonyl]-6-(2,3,5-trifluorophenyl)-2-[(4S)-2,2,4-trimethylpyrrolidin-1-yl]pyridine-3-carboxamide]
+++ (“+++” means <3 uM) | CC1CN(c2ncccc2C(=O)NS(=O)(=O)c2cccc(N3Cc4ccccc4C3)n2)C(C)(C)C1 (centres unmarked) [Compound 1838, N-[(6-isoindolin-2-yl-2-pyridyl)sulfonyl]-2-(2,2,4-trimethylpyrrolidin-1-yl)pyridine-3-carboxamide]
+++ (“+++” means <3 uM) | Cc1cc(C)cc(-c2ccc(C(=O)NS(=O)(=O)N3CC[C@H](N)C3)c(N3C[C@@H](C)CC3(C)C)n2)c1 [Compound 1839, N-[(3S)-3-aminopyrrolidin-1-yl]sulfonyl-6-(3,5-dimethylphenyl)-2-[(4S)-2,2,4-trimethylpyrrolidin-1-yl]pyridine-3-carboxamide]
+++ (“+++” means <3 uM) | CC1CN(c2ncccc2C(=O)NS(=O)(=O)c2cccc(Nc3cccc(Cl)c3)n2)C(C)(C)C1 (centres unmarked) [Compound 1841, N—[[6-(3-chloroanilino)-2-pyridyl]sulfonyl]-2-(2,2,4-trimethylpyrrolidin-1-yl)pyridine-3-carboxamide]
+++ (“+++” means <3 uM) | CC1CN(c2ncccc2C(=O)NS(=O)(=O)c2cccc(O[C@H](C)c3ccccc3)n2)C(C)(C)C1 (stereo partly drawn) [Compound 1842, N—[[6-[(1R)-1-phenylethoxy]-2-pyridyl]sulfonyl]-2-(2,2,4-trimethylpyrrolidin-1-yl)pyridine-3-carboxamide]
+++ (“+++” means <3 uM) | CCOc1cc(C)cc(-c2cnc(N3CC(C)CC3(C)C)c(C(=O)NS(=O)(=O)c3cccc(N)n3)c2)c1 (centres unmarked) [Compound 1843, N-[(6-amino-2-pyridyl)sulfonyl]-5-(3-ethoxy-5-methyl-phenyl)-2-(2,2,4-trimethylpyrrolidin-1-yl)pyridine-3-carboxamide]
